Measurements taken from US20210045385A1, “PYRIDAZINONE-SUBSTITUTED KETOXIMES AS HERBICIDES” (FMC Corporation, priority 2018, published 2021).

How the values were obtained:
Type in all cases: in vivo
[1] = test system: foxtail, giant (giant foxtail, Setaria faberii); test: Test A postemergence, visual plant response rating; settings: for Foxtail, Giant plant response rating (0 to 100 scale): 500 g ai/ha, postemergence, 0 is no effect, 100 is complete control; for Foxtail, Giant plant response rating: Postemergence, 125 g ai/ha, 0 to 100 scale (0 no effect, 100 complete control)
Summary of the method: (§1)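 Greenhouse pot test in loam–sand soil mix: compound in a surfactant-containing non-phytotoxic solvent applied preemergence (directed soil spray) or postemergence (one- to two-leaf plants, 2–10 cm). Injury scored visually after ~10 days, 0–100.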

[2] = test system: wheat (Triticum aestivum); test: Test A postemergence, visual plant response rating; settings: for Wheat plant response rating (0 to 100 scale): 500 g ai/ha, postemergence, 0 is no effect, 100 is complete control; for Wheat plant response rating: Postemergence, 125 g ai/ha, 0 to 100 scale (0 no effect, 100 complete control)
Summary of the method: as §1

[3] = test system: ragweed (common ragweed, Ambrosia elatior); test: Test A postemergence, visual plant response rating; settings: for Ragweed plant response rating (0 to 100 scale): 500 g ai/ha, postemergence, 0 is no effect, 100 is complete control; for Ragweed plant response rating: Postemergence, 125 g ai/ha, 0 to 100 scale (0 no effect, 100 complete control)
Summary of the method: as §1

[4] = test system: Italian ryegrass (Lolium multiflorum); test: Test A postemergence, visual plant response rating; settings: for Ryegrass, Italian plant response rating (0 to 100 scale): 500 g ai/ha, postemergence, 0 is no effect, 100 is complete control; for Ryegrass, Italian plant response rating: Postemergence, 125 g ai/ha, 0 to 100 scale (0 no effect, 100 complete control)
Summary of the method: as §1

[5] = test system: pigweed (Amaranthus retroflexus); test: Test A postemergence, visual plant response rating; settings: for Pigweed plant response rating (0 to 100 scale): 500 g ai/ha, postemergence, 0 is no effect, 100 is complete control; for Pigweed plant response rating: Postemergence, 125 g ai/ha, 0 to 100 scale (0 no effect, 100 complete control)
Summary of the method: as §1

[6] = test system: blackgrass (Alopecurus myosuroides); test: Test A postemergence, visual plant response rating; settings: for Blackgrass plant response rating (0 to 100 scale): 500 g ai/ha, postemergence, 0 is no effect, 100 is complete control; for Blackgrass plant response rating: Postemergence, 125 g ai/ha, 0 to 100 scale (0 no effect, 100 complete control)
Summary of the method: as §1

[7] = test system: galium (catchweed bedstraw, Galium aparine); test: Test A postemergence, visual plant response rating; settings: for Galium plant response rating (0 to 100 scale): 500 g ai/ha, postemergence, 0 is no effect, 100 is complete control; for Galium plant response rating: Postemergence, 125 g ai/ha, 0 to 100 scale (0 no effect, 100 complete control)
Summary of the method: as §1

[8] = test system: barnyardgrass (Echinochloa crus-galli); test: Test A postemergence, visual plant response rating; settings: for Barnyardgrass plant response rating (0 to 100 scale): 500 g ai/ha, postemergence, 0 is no effect, 100 is complete control; for Barnyardgrass plant response rating: Postemergence, 125 g ai/ha, 0 to 100 scale (0 no effect, 100 complete control)
Summary of the method: as §1

[9] = test system: kochia (Kochia scoparia); test: Test A postemergence, visual plant response rating; settings: for Kochia plant response rating (0 to 100 scale): 500 g ai/ha, postemergence, 0 is no effect, 100 is complete control; for Kochia plant response rating: Postemergence, 125 g ai/ha, 0 to 100 scale (0 no effect, 100 complete control)
Summary of the method: as §1

[10] = test system: corn (Zea mays); test: Test A postemergence, visual plant response rating; settings: for Corn plant response rating (0 to 100 scale): 500 g ai/ha, postemergence, 0 is no effect, 100 is complete control; for Corn plant response rating: Postemergence, 125 g ai/ha, 0 to 100 scale (0 no effect, 100 complete control)
Summary of the method: as §1

[11] = test system: foxtail, giant (giant foxtail, Setaria faberii); test: Test A preemergence, visual plant response rating; settings: for Foxtail, Giant plant response rating: 125 g ai/ha, preemergence, 0 to 100 scale, 0 no effect, 100 complete control; for Foxtail, Giant plant response rating (0 to 100 scale): 500 g ai/ha Preemergence, approx. 10 days
Summary of the method: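 Ratings use a 0–100 visual scale (100 = complete control) against untreated controls, scored about 10 days after greenhouse treatment. Test chemicals were formulated in surfactant-containing non-phytotoxic solvent and applied either as soil spray after planting (preemergence) or onto one- to two-leaf, 2–10 cm plants (postemergence).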

[12] = test system: ragweed (common ragweed, Ambrosia elatior); test: Test A preemergence, visual plant response rating; settings: for Ragweed plant response rating: 125 g ai/ha, preemergence, 0 to 100 scale, 0 no effect, 100 complete control; for Ragweed plant response rating (0 to 100 scale): 500 g ai/ha Preemergence, approx. 10 days
Summary of the method: as §1

[13] = test system: Italian ryegrass (Lolium multiflorum); test: Test A preemergence, visual plant response rating; settings: for Ryegrass, Italian plant response rating: 125 g ai/ha, preemergence, 0 to 100 scale, 0 no effect, 100 complete control; for Ryegrass, Italian plant response rating (0 to 100 scale): 500 g ai/ha Preemergence, approx. 10 days
Summary of the method: as §1

[14] = test system: pigweed (Amaranthus retroflexus); test: Test A preemergence, visual plant response rating; settings: for Pigweed plant response rating: 125 g ai/ha, preemergence, 0 to 100 scale, 0 no effect, 100 complete control; for Pigweed plant response rating (0 to 100 scale): 500 g ai/ha Preemergence, approx. 10 days
Summary of the method: as §1

[15] = test system: barnyardgrass (Echinochloa crus-galli); test: Test A preemergence, visual plant response rating; settings: for Barnyardgrass plant response rating: 125 g ai/ha, preemergence, 0 to 100 scale, 0 no effect, 100 complete control; for Barnyardgrass plant response rating (0 to 100 scale): 500 g ai/ha Preemergence, approx. 10 days
Summary of the method: as §1

[16] = test system: kochia (Kochia scoparia); test: Test A preemergence, visual plant response rating; settings: for Kochia plant response rating: 125 g ai/ha, preemergence, 0 to 100 scale, 0 no effect, 100 complete control; for Kochia plant response rating (0 to 100 scale): 500 g ai/ha Preemergence, approx. 10 days
Summary of the method: as §1

[17] = test system: ducksalad (Heteranhera limosa); test: Test B flooded paddy test, visual plant response rating; settings: 250 g ai/ha, Flood, applied to paddy water, 2-leaf stage, evaluated after 13 to 15 days
Summary of the method: (§2)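 2-leaf plants; pots flooded 3 cm over soil surface; compound dosed straight into the floodwater; depth kept constant; greenhouse 13–15 d; visual rating vs. untreated controls.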

[18] = test system: rice (Oryza sativa); test: as above; settings: 250 g ai/ha, Flood, applied to paddy water, 2-leaf stage, evaluated after 13 to 15 days
Summary of the method: as §2

[19] = test system: sedge, umbrella (small-flower umbrella sedge, Cyperus difformis); test: as above; settings: 250 g ai/ha, Flood, applied to paddy water, 2-leaf stage, evaluated after 13 to 15 days
Summary of the method: as §2

[20] = test system: barnyardgrass (Echinochloa crus-galli); test: as above; settings: 250 g ai/ha, Flood, applied to paddy water, 2-leaf stage, evaluated after 13 to 15 days
Summary of the method: as §2

SMILES	Foxtail, Giant plant response rating (0 to 100 scale) [1]	Foxtail, Giant plant response rating [1]	Wheat plant response rating (0 to 100 scale) [2]	Wheat plant response rating [2]	Ragweed plant response rating (0 to 100 scale) [3]	Ragweed plant response rating [3]	Ryegrass, Italian plant response rating (0 to 100 scale) [4]	Ryegrass, Italian plant response rating [4]	Pigweed plant response rating (0 to 100 scale) [5]	Pigweed plant response rating [5]	Blackgrass plant response rating (0 to 100 scale) [6]	Blackgrass plant response rating [6]	Galium plant response rating (0 to 100 scale) [7]	Galium plant response rating [7]	Barnyardgrass plant response rating (0 to 100 scale) [8]	Barnyardgrass plant response rating [8]	Kochia plant response rating (0 to 100 scale) [9]	Kochia plant response rating [9]	Corn plant response rating (0 to 100 scale) [10]	Corn plant response rating [10]	further results
C=CCON=C(c1c(O)c(C)nn(C)c1=O)c1cc(Br)cc2ccccc12 [Compound 114]	90	90	50	0	100	90	90	80	90	70	90	80	100	100	90	80	40	30	80	20	Foxtail, Giant plant response rating [11]: 100; Foxtail, Giant plant response rating (0 to 100 scale) [11]: 100; Ragweed plant response rating [12]: 80; Ragweed plant response rating (0 to 100 scale) [12]: 90; Ryegrass, Italian plant response rating [13]: 70; Ryegrass, Italian plant response rating (0 to 100 scale) [13]: 100; Pigweed plant response rating [14]: 10; Pigweed plant response rating (0 to 100 scale) [14]: 80; Barnyardgrass plant response rating [15]: 90; Barnyardgrass plant response rating (0 to 100 scale) [15]: 100; Kochia plant response rating [16]: 10; Kochia plant response rating (0 to 100 scale) [16]: 20; Plant response rating, Ducksalad (0 to 100 scale, 0 is no effect, 100 is complete control) [17]: 85; Plant response rating, Rice (0 to 100 scale, 0 is no effect, 100 is complete control) [18]: 35; Plant response rating, Sedge, Umbrella (0 to 100 scale, 0 is no effect, 100 is complete control) [19]: 85; Plant response rating, Barnyardgrass (0 to 100 scale, 0 is no effect, 100 is complete control) [20]: 70
CCO/N=C(\c1c(O)c(C)nn(C)c1=O)c1cccc2ccccc12 [Compound 79]	80	60	0	0	100	90	30	30	90	80	80	70	100	90	90	40	80	70	20	10	Foxtail, Giant plant response rating [11]: 60; Foxtail, Giant plant response rating (0 to 100 scale) [11]: 90; Ragweed plant response rating [12]: 90; Ragweed plant response rating (0 to 100 scale) [12]: 100; Ryegrass, Italian plant response rating [13]: 30; Ryegrass, Italian plant response rating (0 to 100 scale) [13]: 60; Pigweed plant response rating [14]: 30; Pigweed plant response rating (0 to 100 scale) [14]: 100; Barnyardgrass plant response rating [15]: 70; Barnyardgrass plant response rating (0 to 100 scale) [15]: 80; Kochia plant response rating [16]: 10; Kochia plant response rating (0 to 100 scale) [16]: 70; Plant response rating, Ducksalad (0 to 100 scale, 0 is no effect, 100 is complete control) [17]: 0; Plant response rating, Rice (0 to 100 scale, 0 is no effect, 100 is complete control) [18]: 0; Plant response rating, Sedge, Umbrella (0 to 100 scale, 0 is no effect, 100 is complete control) [19]: 0; Plant response rating, Barnyardgrass (0 to 100 scale, 0 is no effect, 100 is complete control) [20]: 0
CCc1ccccc1C(=NOC)c1c(O)c(C)nn(C)c1=O [Compound 37]	70	30	10	0	80	60	90	80	90	70	80	60	90	80	20	10	80	60	30	0	Foxtail, Giant plant response rating [11]: 30; Foxtail, Giant plant response rating (0 to 100 scale) [11]: 80; Ragweed plant response rating [12]: 10; Ragweed plant response rating (0 to 100 scale) [12]: 80; Ryegrass, Italian plant response rating [13]: 40; Ryegrass, Italian plant response rating (0 to 100 scale) [13]: 60; Pigweed plant response rating [14]: 40; Pigweed plant response rating (0 to 100 scale) [14]: 90; Barnyardgrass plant response rating [15]: 0; Barnyardgrass plant response rating (0 to 100 scale) [15]: 20; Kochia plant response rating [16]: 0; Kochia plant response rating (0 to 100 scale) [16]: 80; Plant response rating, Ducksalad (0 to 100 scale, 0 is no effect, 100 is complete control) [17]: 0; Plant response rating, Rice (0 to 100 scale, 0 is no effect, 100 is complete control) [18]: 0; Plant response rating, Sedge, Umbrella (0 to 100 scale, 0 is no effect, 100 is complete control) [19]: 0; Plant response rating, Barnyardgrass (0 to 100 scale, 0 is no effect, 100 is complete control) [20]: 0
